# Data taken from article PMC7557804, “The Anti-Microbial Peptide (Lin-SB056-1)2-K Reduces Pro-Inflammatory Cytokine Release through Interaction with Pseudomonas aeruginosa Lipopolysaccharide” (Antibiotics, 2020).
# Entries after “also recorded” stand apart in the source; their conditions may differ.
# Columns and labels:
# [1] = BODIPY TR cadaverine (BC) fluorescent displacement assay, LPS binding; set-up: species or system P. aeruginosa; details: 50 mM Tris-HCl, pH 7.4, 25 °C
# Protocol: Measurement of the ability of lin-SB056-1 and its dendrimeric derivative to bind P. aeruginosa serotype 10 LPS (Sigma-Aldrich) in vitro was performed by a fluorescent displacement assay using the BODIPY TR cadaverine (BC) probe (5-(((4-(4,4-difluoro-5-(2-thienyl)-4-bora-3a,4a-diaza-s-indacene-3-yl)phenoxy)acetyl)amino)pentylamine, hydrochloride); Thermo Fisher Scientific), as described elsewhere. BC binds to LPS by recognizing the lipid A portion and the probe fluorescence is quenched. When a peptide able to interact with LPS is added, BC is displaced from the complex and its fluorescence increases. LPS binding assays were carried out in 50 mM Tris-HCl buffer, pH 7.4. Aliquots of the peptides at a final concentration of 0.1 μM were successively added to a cuvette containing the LPS/BC complex (10 µg/mL P. aeruginosa LPS and 10 µM BC). Fluorescence measurements were performed with a Perkin-Elmer LS 55B spectrofluorometer (Perkin-Elmer, Waltham, MA, USA) using a thermostated (25 °C) cuvette apparatus (excitation: 580 nm; emission: 620 nm).
# [2] = LAL assay, LPS neutralization; type: biochemical, Escherichia coli; details: E. coli 011:B4 LPS 2 EU/mL, 37 °C
# Protocol: The ability of lin-SB056-1 and (lin-SB056-1)2-K to neutralize the activity of LPS was analyzed using a standardized LAL assay (Pierce LAL chromogenic endotoxin quantitation kit; Thermo Fisher Scientific). Peptides at different concentrations (2.4 to 19.25 μM) were pre-incubated with E. coli 011:B4 LPS (2 Endotoxin Units (EU)/mL; EU = unit of measurement for endotoxin activity) for 30 min (37 °C, shaking) in order to promote the interaction between the two molecules. LPS alone was used as positive control. Following incubation, peptide-treated and untreated samples were mixed with the LAL reagent (1:1 ratio) and incubated for 10 min at 37 °C. Subsequently, 100 μL of the chromogenic substrate were added and incubated with the samples for 6 min. The reaction was terminated by adding 100 μL of acetic acid (25% v/v), and absorbance was measured at 405 nm ([…]) using a microplate reader (Multiscan FC, Life Technologies Italia, Monza, Italy). The amount of peptide-sequestered LPS was determined as follows: LPS neutralization (%) = [100 − (ODpeptide/ODpositive control × 100)].
# A549 cells = test: Cytotoxicity (LDH release) towards A549 cells; type: cell-based, Human; details: LPS-stimulated A549, 4 h
# Protocol: (§1) Human non-small-cell lung adenocarcinoma A549 cells (ATCC CCL-185; LGC Standards, Milan, Italy) and human monocytic THP-1 cells (ATCC TIB-202; LGC Standards) were cultured in tissue culture flasks in Dulbecco’s modified essential medium (DMEM) (Euroclone, Milan, Italy) and RPMI 1640 medium (Euroclone), respectively. Both media were supplemented with 2 mM L-glutamine (Euroclone) and 10% heat-inactivated fetal bovine serum (FBS; Euroclone). Confluent monolayers were detached from the culture flask with 0.25% trypsin/1 mM EDTA solution (Euroclone), suspended in complete culture medium and seeded into flat-bottom 96-well plates at a final density of 1 × 10^4 cells/well (A549) and 2 × 10^4 cells/well (THP-1). A549 cells were cultured for 24 h at 37 °C, 5% CO2 in order to allow adhesion and formation of semi-confluent monolayers. THP-1 cells were cultured for 3 days (37 °C, 5% CO2) in the presence of 100 nM TPA (Sigma-Aldrich, St. Louis, MO, USA) to induce their differentiation into macrophage-like cells.
# (§2) The cytotoxicity of lin-SB056-1 and (lin-SB056-1)2-K towards A549 and THP-1 cells was evaluated to exclude a possible correlation between reduction in cytokine levels and decrease in cell numbers. To this end, culture supernatants of cells stimulated with LPS in the presence of the peptides were employed to quantify the amount of cytoplasmic LDH released by dead cells. Cells incubated in culture medium alone or in the presence of LPS served as an indication of spontaneous cell death (cell viability controls), while cells treated with a commercial lysis buffer (Pierce LDH cytotoxicity assay kit, Thermo Fisher Scientific) were used as cell death control (100% cell lysis). The enzymatic activity of LDH in cell supernatants was measured using the Pierce LDH cytotoxicity assay kit (Thermo Fisher Scientific) following manufacturer’s instructions. The cytotoxic effect was determined as follows: cytotoxicity (%) = [(LDH activity of A/LDH activity of B) × 100], where A represents peptide-treated or untreated cells (both in the presence and absence of LPS), and B corresponds to the cell lysis control.
# THP-1 macrophages = test: Cytotoxicity (LDH release) towards THP-1 macrophages; type: cell-based, Human; details: 4 h
# Protocol: as §1, §2
substance,measurement,setting,value
"[KWKIRVRLSA]2-K [(lin-SB056-1)2-K, dendrimeric derivative of lin-SB056-1]",LPS-binding affinity compared to monomeric form,[1]; BC displacement,significantly greater affinity
same,ED50 (Effective Displacement; peptide concentration displacing half of the BC),"[1]; P. aeruginosa serotype 10 LPS 10 µg/mL, BC 10 µM, excitation 580 nm, emission 620 nm, mean of three independent experiments, SD not exceeding 5%",approximately 0.4 µM
same,LPS neutralization,"[2]; 19.25 μM peptide, pre-incubation 30 min, shaking, LAL reagent 10 min, chromogenic substrate 6 min, absorbance 405 nm (OD450), vs peptide-untreated control, mean of three independent experiments",~100%
same,LPS neutralization / LAL activity,"[2]; 2.4 to 19.25 μM peptide, 30 min",higher LPS-binding ability than lin-SB056-1; also recorded: reduction of LAL activity
same,"cell death (LDH release), with LPS","A549 cells; up to 19.25 μM (highest tested), 37 °C, 5% CO2, relative to cell lysis control, at least three independent experiments",less than 5%
same,toxicity,"A549 cells; up to 19.25 μM, LDH release",no detectable toxicity
same,"cell death (LDH release), with LPS","THP-1 macrophages; LPS-stimulated THP-1 macrophages, up to 19.25 μM (highest tested), 37 °C, 5% CO2, relative to cell lysis control, at least three independent experiments",less than 5%
same,toxicity,"THP-1 macrophages; LPS-stimulated THP-1 macrophages, up to 19.25 μM, LDH release",no detectable toxicity
same,"cell death (LDH release), co-cultured with peptide and LPS","THP-1 macrophages; THP-1 macrophages, 19.25 μM peptide with LPS, 37 °C, 5% CO2, mean of at least three independent experiments",5%
same,"cell death (LDH release), in the absence of LPS","THP-1 macrophages; THP-1 macrophages, 19.25 μM peptide, no LPS, 37 °C, 5% CO2, mean of at least three independent experiments",14%
